One substance from patent US7649091B2, “Orally bioavailable low molecular weight metalloporphyrins as antioxidants” (Eukarion, Inc., priority 2003, dated 2010) can be followed below.

Several values for one entry are separate records, joined by “and”; a condition that tells them apart may be missing. Equal entries are not always repeated.

Holding throughout (type): in vivo, Balb/c male mice
Data set [1] can be described thus: Animal bioavailability of Compound 3, i.v. experiment: plasma and organ levels by LC/MS. As to conditions: IV, 238 min. As for the experimental part:
(§1) Twenty 8-week-old Balb/c male mice (Charles River, US) were used in all experiments. Mice were kept at a temperature of 22±3° C. and provided with a standard diet and water.
(§2) For i.v. experiment mice received standard food before and during the experiment. For oral route, mice received no food 3 h before the start of the experiment and no food after.
0.1 mL of a solution of Compound 3, 3 mg/mL in mannitol 5% (previously sterilized by filtration onto Acrodisc® syringe filter 0.2 μm HT Tuffryn® membrane) was injected in the tail vein. Two animals were killed 0.5 h after injection, two animals were killed 1 h after injection, two animals were killed 2 h after injection and two animals were killed 4 h after injection.
(§3) At the time of sacrifice, mice were bled by heart puncture. Then organs were removed for biochemical studies (brain, kidney, liver and lung).
Red blood cells and plasma were separated by addition of heparine (15 μL) and centrifugation (2000 rpm, 5 min). […] The liquid layer (50 μL) was then analysed by LC/MS (MRM procedure, Column PARTISIL 5 ODS-3 RAC II, Cat. no. 4222-225).
Organs were washed with 5 ml of distillated water and dried with blotting paper. Volumes of organs were measured by addition of the organ into one half full of water graduated test tube. […]

Data set [2] in a line: Animal bioavailability of Compound 3, oral route experiment (gavage): plasma and organ levels by LC/MS. Particulars: for Brain: Oral. As for the experimental part:
as §1, §2
Animals received by gavage a 0.1 mL of a solution of Compound 3 3 mg/mL in mannitol 5% (previously sterilized by filtration onto Acrodisc® syringe filter […] HT Tuffryn® membrane). Two animals were killed 0.5 h after gavage, two animals were killed 1 h after gavage, two animals were killed 2 h after gavage and two animals were killed 4 h after gavage.
as §3
Red blood cells and plasma were separated by addition of heparine (15 μL) and centrifugation (2000 rpm, 5 min). Then 1.5 mL of HPLC mobil phase (Ammonium acetate 3 mM, acetonitrile, methanol, formic acid; 1/1/1/0.07 (v/v) at pH=3) were added to 40 μL of plasma and the mixture was centrifugated (2000 rpm, 5 min). The liquid layer (50 μL) was then analysed by LC/MS (MRM procedure, Column PARTISIL 5 ODS-3 RAC II, Cat. no. 4222-225).
Organs were washed with 5 ml of distillated water and dried with blotting paper. Volumes of organs were measured by addition of the organ into one half full of water graduated test tube. Organs were dried a second time with blotting paper and then weighed. A volume of mobil phase (in mL) corresponding to 6 times of the organ weigh (in g) was added to the organ. The mixture was crushed mechanically (with JANKE & KUNKEL, IKA Labortechnik ULTRA-TURRAX T25; 24000 rpm, 1 min), sonicated 30 min and centrifugated 20 min (2000 rpm). To this mixture, 1 mL of the liquid layer was removed and filtrated with Acrodisc CRPTFE® syringe Filter in order to obtain a clear solution suitable for LC/MS analysis.

The nature of data set [3]: Animal bioavailability of Compound 3, i.v. experiment: plasma and organ levels by LC/MS. Particulars: IV, 82 min.
Setting [4] is: 0.1 mL of 3 mg/mL in mannitol 5%, individual mouse.
[5] abbreviates: third line = mean of the two mice.

Turning to “{[{(Porphine-5,15-diyl)bis[cyclopropyl-diyl]}](2-)-N^21,N^22,N^23,N^24}manganese(III)acetate [Compound 3]”, the Brain was 89 ng/g and 91 ng/g in data set [1] (setting [4]); 90 ng/g in data set [1] (setting [5]); 88 ng/g and 24 ng/g in data set [2] (70 min, 0.1 mL of 3 mg/mL in mannitol 5% by gavage, individual mouse); 56 ng/g in data set [2] (70 min, third line = mean of the two mice); 8 ng/g and 9 ng/g in data set [2] (234 min, 0.1 mL of 3 mg/mL in mannitol 5% by gavage, individual mouse); 9 ng/g in data set [2] (234 min, third line = mean of the two mice). Moreover, the Brain in data set [3] (setting [4]) was 25 ng/g and 75 ng/g; in data set [3] (setting [5]), 50 ng/g. Besides, the “Brain, oral level as percent of IV level” value in data set [2] (Oral 70 min mean relative to IV 82 min mean (in parentheses)) was “(112%)”; in data set [2] (Oral 234 min mean relative to IV 238 min mean (in parentheses)), “(10%)”. Besides, in data set [2] (mouse, in vivo, po), the Lung was found to be 67 ng/g.
